{
  "source": "paper PMC10590383",
  "about": "“Repurposing conformational changes in ANL superfamily enzymes to rapidly generate biosensors for organic and amino acids” (Nature Communications, 2023)",
  "key": {"[1]": {"experiment": "Response of purified […] to proline", "format": "biochemical", "protocol": "(§1) Fig. 3 Dose–response curves and fluorescence spectrums of […]s. a, c, e, g, i, k Dose–response curve of purified […]s with increasing concentrations of ligand in 100 mM Tris-HCl buffer (pH=7.5). The normalized ΔF/F0 value increased after ligand binding. All data shown are mean ± S.D. (n = 3 biologically independent samples). b, d, f, h, j, l The fluorescence spectra of […]s changed as the ligand concentration increased. All data shown are mean ± S.D. (n = 3 biologically independent samples). Source data are provided as a Source data file.\n(§2) The study conducted dose–response curve, substrate specificity, and fluorescent spectrum analyses in 100-mM Tris buffer (pH = 7.5), while pH stability experiments were performed in 100-mM Tris buffer at three different pH values (6.5, 7.5, and 8.5) at room temperature. […] protein at a concentration of 0.75 μM, various small molecule concentrations, 1 mM ATP, and 2.5 mM MgCl2 were used in the experiments. Fluorescent signals were detected using a Microplate Reader (Synergy H4, Bio Tek) at an excitation/emission wavelength of 460 nm/510 nm or 480 nm/510 nm. The dose-response curve was determined immediately after the addition of the analyte. The total duration of the measurement was 15 min, with readings taken at one-minute intervals. The dose-response curve was plotted using the fluorescence values obtained after achieving stability in the fluorescence signal. The dose-response curves were fitted using the logistic model LOGISTIC5 available in Origin 2021, which could provide a more adequate fit to asymmetric dose-response data[62],[63]. Excitation spectra were scanned from 300 to 540 nm with a step size of 5 nm, and the emission wavelength was set to 560 nm. Emission spectra were scanned from 470 to 700 nm with a step size of 5 nm, and the excitation wavelength was set to 450 nm. The thermal stability of […] was analyzed using the UNcle multifunctional protein stability analysis system. Measurements were performed in 20 mM MOPS buffer with 2 mM DTT at a sample concentration of 1 mg/mL. Absolute fluorescence quantum yields were measured using an absolute photoluminescence quantum yield spectrometer (FS5, Edinburgh)."}, "[2]": {"experiment": "Substrate (ligand) specificity of […]s", "format": "biochemical", "conditions": "Supplementary Fig. 3 c; substrate specificity", "protocol": "(§3) Fig. 4 Engineering ligand specificity of GrsA-PheA for generating […]s. a The selectivity-conferring code of Phe and Leu A domains. b–f Dose–response curve of purified […]s with increasing concentrations of ligands in 100 mM Tris-HCl buffer (pH=7.5). All data shown are means ± S.D. (n = 3 biologically independent samples). g A series of […] reactions was tested to show the […]’s specificity with 20 proteinogenic amino acids. The values on the heatmap represent the ΔF/F0 value normalized to each […]’s maximal ΔF/F0 value ((ΔF/F0)/maximal ΔF/F0). The concentrations of 20 amino acids were 100 μM. The color indicates the average value of three independent biological replicates after 15 min. All data shown are means ± S.D. (n = 3 biologically independent samples). Source data are provided as a Source data file.\nLigand specificity is an important biosensors feature. Generally, the NRPS A domains have high specificity for their substrates because they are the first “gatekeeper” of NRPSs and ensure that the correct monomers are activated and thioesterified[32],[33]. Therefore, we speculated that this property would be inherited by our […]s because the ligand-binding pockets were unchanged during the […] creation process. Twenty proteinogenic amino acids were used to test the ligand specificity of […]s. […] We also investigated the dependence of […]s on Mg^2+ and ATP (Supplementary Fig. 4). […] This phenomenon corroborates with the distinct conformational changes observed in Hinge A of Nt4CL2 (Mg^2++ATP) (PDB ID: 5BSM) and Nt4CL2 (Coumaroyl-AMP) (PDB ID: 5BST) reported in the literature (Supplementary Fig. 4k), where the direction of motion in hinge A differs. […] During the determination of quantum yield, we observed that the absolute quantum yield of the […] variants ranged from 0.3 to 0.6 upon addition of the respective substrates, which show no significant difference with that reported in literature. The specific values are provided in Supplementary Table 2.\nas §2"}, "[3]": {"experiment": "Fluorescence spectra / excitation wavelength scan of […]s", "format": "physicochemical", "conditions": "Wavelength 300 nm", "protocol": "Fig. 3 Dose–response curves and fluorescence spectrums of […]s. a, c, e, g, i, k Dose–response curve of purified […]s with increasing concentrations of ligand in 100 mM Tris-HCl buffer (pH=7.5). […] All data shown are mean ± S.D. (n = 3 biologically independent samples). Source data are provided as a Source data file.\nas §2"}, "[4]": {"molecular_target": "GECFINDER-SβF", "experiment": "Fluorescence dose-response of purified binding-pocket-engineered sensors (0.75 uM) in 100 mM Tris-HCl pH 7.5, room temperature, 1 mM ATP, 2.5 mM MgCl2, excitation 460 or 480 nm, emission 510 nm; logistic five-parameter fit.", "format": "biochemical", "conditions": "n = 3", "protocol": "as §3, §2"}, "[5]": {"experiment": "Dose–response curve of purified […] with R-β-phenylalanine", "format": "biochemical", "protocol": "as §3, §2"}, "[6]": {"molecular_target": "T1, GECFINDER-Phe3 (Aneurinibacillus migulanus, UniProt P0C061)", "T1 construct": "gene grsA; GrsA-PheA-PCP; cpEGFP inserted in hinge B, linkers VF-QS", "T1 sequence (P0C061 1-617)": "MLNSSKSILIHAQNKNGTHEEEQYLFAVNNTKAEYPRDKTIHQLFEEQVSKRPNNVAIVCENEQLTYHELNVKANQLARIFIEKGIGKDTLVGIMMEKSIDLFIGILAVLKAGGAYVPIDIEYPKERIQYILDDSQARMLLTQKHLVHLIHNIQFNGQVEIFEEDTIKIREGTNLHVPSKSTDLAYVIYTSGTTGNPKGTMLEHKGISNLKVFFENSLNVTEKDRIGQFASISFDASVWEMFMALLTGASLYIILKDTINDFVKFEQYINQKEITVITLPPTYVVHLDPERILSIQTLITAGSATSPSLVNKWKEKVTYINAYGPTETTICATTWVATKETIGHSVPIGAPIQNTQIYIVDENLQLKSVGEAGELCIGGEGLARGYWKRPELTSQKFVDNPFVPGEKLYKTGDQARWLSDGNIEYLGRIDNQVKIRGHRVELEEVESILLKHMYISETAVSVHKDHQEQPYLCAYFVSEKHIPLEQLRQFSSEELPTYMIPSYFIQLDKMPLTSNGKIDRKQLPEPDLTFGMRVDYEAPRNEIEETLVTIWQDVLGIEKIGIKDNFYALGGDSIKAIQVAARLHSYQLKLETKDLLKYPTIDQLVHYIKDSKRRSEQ", "experiment": "Fluorescence dose-response of purified cpEGFP sensors (0.75 uM) in 100 mM Tris-HCl pH 7.5, room temperature, 1 mM ATP, 2.5 mM MgCl2; excitation 400, 460 or 480 nm by sensor, emission 510 nm; logistic five-parameter fit.", "format": "biochemical", "conditions": "n = 3", "protocol": "as §1, §2"}},
  "data": [
    {"smiles": "O=C(O)[C@@H]1CCCN1", "note": "[Pro]", "values": [
      {"measurement": "Dose-response, AVE of Repeat 1-3 (Fig. 3 g)", "setting": "[1]; Pro 0.0002 μM", "value": "-7.17e-17"},
      {"measurement": "Dose-response, AVE of Repeat 1-3 (Fig. 3 g)", "setting": "[1]; Pro 0.002 μM", "value": 0.0174},
      {"measurement": "Dose-response, AVE of Repeat 1-3 (Fig. 3 g)", "setting": "[1]; Pro 0.02 μM", "value": 0.02154},
      {"measurement": "Dose-response, AVE of Repeat 1-3 (Fig. 3 g)", "setting": "[1]; Pro 0.2 μM", "value": 0.03875},
      {"measurement": "Dose-response, AVE of Repeat 1-3 (Fig. 3 g)", "setting": "[1]; Pro 2 μM", "value": 0.04783},
      {"measurement": "Dose-response, AVE of Repeat 1-3 (Fig. 3 g)", "setting": "[1]; Pro 20 μM", "value": 0.05475},
      {"measurement": "Dose-response, AVE of Repeat 1-3 (Fig. 3 g)", "setting": "[1]; Pro 100 μM", "value": 0.06466},
      {"measurement": "Dose-response, AVE of Repeat 1-3 (Fig. 3 g)", "setting": "[1]; Pro 200 μM", "value": 0.07263},
      {"measurement": "Dose-response, AVE of Repeat 1-3 (Fig. 3 g)", "setting": "[1]; Pro 500 μM", "value": 0.09025},
      {"measurement": "Dose-response, AVE of Repeat 1-3 (Fig. 3 g)", "setting": "[1]; Pro 1000 μM", "value": 0.09711},
      {"measurement": "Dose-response, AVE of Repeat 1-3 (Fig. 3 g)", "setting": "[1]; Pro 2000 μM", "value": 0.09414},
      {"measurement": "Dose-response, AVE of Repeat 1-3 (Fig. 3 g)", "setting": "[1]; Pro 4000 μM", "value": 0.08171},
      {"measurement": "fluorescence response of GECFINDER to each substrate, AVE of 3 repeats", "setting": "[2]", "value": -0.002038},
      {"measurement": "Wavelength scan, AVE of Repeat 1-3 (Fig. 3 h)", "setting": "[3]; 0.0002 μM Pro", "value": 1526},
      {"measurement": "Wavelength scan, AVE of Repeat 1-3 (Fig. 3 h)", "setting": "[3]; 20 μM Pro", "value": 1565},
      {"measurement": "Wavelength scan, AVE of Repeat 1-3 (Fig. 3 h)", "setting": "[3]; 2000 μM Pro", "value": 1543.33}
    ]},
    {"smiles": "N[C@H](CC(=O)O)c1ccccc1", "note": "[R-β-Phe, R-β-phenylalanine]", "values": [
      {"measurement": "EC50", "setting": "[4]", "value": "54.6 ± 7.66", "unit": "µM"}
    ]},
    {"smiles": "N[C@H](CC(=O)O)c1ccccc1", "note": "[R-β-Phe]", "values": [
      {"measurement": "AVE, dose-response Fig. 4 f", "setting": "[5]; substrate R-β-Phe 0.0001 μM", "value": -0.0001175},
      {"measurement": "AVE, dose-response Fig. 4 f", "setting": "[5]; substrate R-β-Phe 0.001 μM", "value": -0.003533},
      {"measurement": "AVE, dose-response Fig. 4 f", "setting": "[5]; substrate R-β-Phe 0.01 μM", "value": "-3.814e-5"},
      {"measurement": "AVE, dose-response Fig. 4 f", "setting": "[5]; substrate R-β-Phe 0.1 μM", "value": 0.008066},
      {"measurement": "AVE, dose-response Fig. 4 f", "setting": "[5]; substrate R-β-Phe 1 μM", "value": 0.06811},
      {"measurement": "AVE, dose-response Fig. 4 f", "setting": "[5]; substrate R-β-Phe 5 μM", "value": 0.06226},
      {"measurement": "AVE, dose-response Fig. 4 f", "setting": "[5]; substrate R-β-Phe 10 μM", "value": 0.1204},
      {"measurement": "AVE, dose-response Fig. 4 f", "setting": "[5]; substrate R-β-Phe 50 μM", "value": 0.3026},
      {"measurement": "AVE, dose-response Fig. 4 f", "setting": "[5]; substrate R-β-Phe 100 μM", "value": 0.3923},
      {"measurement": "AVE, dose-response Fig. 4 f", "setting": "[5]; substrate R-β-Phe 500 μM", "value": 0.5534},
      {"measurement": "AVE, dose-response Fig. 4 f", "setting": "[5]; substrate R-β-Phe 1000 μM", "value": 0.5949},
      {"measurement": "AVE, dose-response Fig. 4 f", "setting": "[5]; substrate R-β-Phe 2000 μM", "value": 0.5892},
      {"measurement": "fluorescence response of GECFINDER to each substrate, AVE of 3 repeats", "setting": "[2]", "value": 0.4936}
    ]},
    {"smiles": "N[C@@H](CC(=O)O)c1ccccc1", "note": "[S-β-Phe, S-β-phenylalanine]", "values": [
      {"measurement": "EC50", "setting": "[6]", "value": "13.6 ± 1.28", "unit": "µM"},
      {"measurement": "EC50", "setting": "[4]", "value": "7.4 ± 0.45", "unit": "µM"}
    ]}
  ]
}
